For the experiment, the target named is T1, hFXR (Homo sapiens, UniProt Q96RI1).
T1 construct: expressed in transfected cells; host or cells: CV-1 cells
T1 sequence (Q96RI1 1-486): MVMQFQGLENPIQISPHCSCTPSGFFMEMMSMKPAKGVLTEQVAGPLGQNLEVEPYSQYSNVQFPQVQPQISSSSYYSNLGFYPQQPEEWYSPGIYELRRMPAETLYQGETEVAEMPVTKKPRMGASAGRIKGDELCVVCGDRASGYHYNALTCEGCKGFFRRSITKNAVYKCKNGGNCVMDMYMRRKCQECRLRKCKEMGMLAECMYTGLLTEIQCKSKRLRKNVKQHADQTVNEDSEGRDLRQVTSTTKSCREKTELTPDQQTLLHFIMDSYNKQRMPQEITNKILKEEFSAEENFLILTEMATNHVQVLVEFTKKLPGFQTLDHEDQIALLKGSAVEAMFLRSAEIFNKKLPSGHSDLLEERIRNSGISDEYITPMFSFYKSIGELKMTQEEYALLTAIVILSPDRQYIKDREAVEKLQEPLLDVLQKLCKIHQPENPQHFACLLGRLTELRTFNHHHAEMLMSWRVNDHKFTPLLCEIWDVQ
T1 sequence (P19793 1-462 partner): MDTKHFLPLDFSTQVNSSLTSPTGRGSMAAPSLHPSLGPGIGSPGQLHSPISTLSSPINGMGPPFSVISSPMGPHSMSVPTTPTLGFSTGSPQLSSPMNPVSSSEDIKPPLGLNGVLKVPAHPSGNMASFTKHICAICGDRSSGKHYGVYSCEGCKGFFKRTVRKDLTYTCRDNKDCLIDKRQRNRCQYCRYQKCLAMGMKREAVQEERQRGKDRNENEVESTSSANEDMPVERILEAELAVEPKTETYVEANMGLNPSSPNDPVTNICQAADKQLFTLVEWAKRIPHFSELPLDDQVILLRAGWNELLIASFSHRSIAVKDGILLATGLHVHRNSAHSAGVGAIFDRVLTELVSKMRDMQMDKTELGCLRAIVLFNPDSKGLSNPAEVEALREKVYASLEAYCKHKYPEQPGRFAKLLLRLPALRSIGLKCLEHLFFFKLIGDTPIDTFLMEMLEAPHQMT
As to the kind of experiment: In Vitro FXR Assay (TK): hFXR/hRXR TK-ECRE-luc reporter in transfected CV-1 cells. The format is cell-based. Conditions: 18 hrs incubation, luminescence, compounds with maximum efficacy <25% of the Fexarmine control classified as '+'. A digest of the protocol:
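CV-1, DMEM/10% charcoal-stripped FBS, 37 °C 5% CO2. Transfection O/N: hFXR + hRXR + TK-ECRE-luc + pCMX-YFP. Cpds (DMSO serial dil.) 18 h; lyse, read luminescence.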

On to `COc1ccc([C@H]2CC[C@H](CN(c3cc(-c4cnc(C5CC5)s4)ccn3)C(=O)[C@H]3CC[C@H](O)CC3)CC2)nc1C` [Compound 9.20, trans-N-(4-(2-Cyclopropylthiazol-5-yl)pyridin-2-yl)-4-hydroxy-N-((trans-4-(5-methoxy-6-methylpyridin-2-yl)cyclohexyl)methyl)cyclohexanecarboxamide], for which the EC50 (usually the concentration that produces a half-maximal response) was no more than 250 nM.

Turning to `COc1ccc([C@H]2CC[C@H](CN(c3cccc(-c4cnc(O)s4)c3)C(=O)[C@H]3CC[C@H](O)CC3)CC2)cc1C` [Compound 3, trans-4-Hydroxy-N-(3-(2-hydroxythiazol-5-yl)phenyl)-N-((trans-4-(4-methoxy-3-methylphenyl)cyclohexyl)methyl) cyclohexanecarboxamide], the EC50 lay in the range of 250 to 1000 nM. In turn, `CCc1ncc(-c2cccc(N(C[C@H]3CC[C@H](c4ccc(OC)c(C)c4)CC3)C(=O)[C@H]3CC[C@H](O)CC3)c2)s1` [Compound 7.05, trans-N-(3-(2-Ethylthiazol-5-yl)phenyl)-4-hydroxy-N-((trans-4-(4-methoxy-3-methylphenyl)cyclohexyl)methyl) cyclohexanecarboxamide] yielded an EC50 of no more than 250 nM.

Compound `Cc1cc([C@H]2CC[C@H](CN(c3cccc(-c4cnc(C5CC5)s4)c3)C(=O)[C@H]3CC[C@H](O)CC3)CC2)ccc1N(C)S(C)(=O)=O` [Compound 9.15, trans-N-(3-(2-Cyclopropylthiazol-5-yl)phenyl)-4-hydroxy-N-((trans-4-(3-methyl-4-(N-methylmethylsulfonamido)phenyl)cyclohexyl)methyl)cyclohexanecarboxamide] registered a concentration for a half-maximal effect (EC50) of 250 to 1000 nM.

Consider `COc1ccc([C@H]2CC[C@H](CN(c3cccc(-c4cnc(SC)s4)c3)C(=O)[C@H]3CC[C@H](O)CC3)CC2)cc1C` [Compound 7.11, trans-4-Hydroxy-N-((trans-4-(4-methoxy-3-methylphenyl)cyclohexyl)methyl)-N-(3-(2-(methylthio)thiazol-5-yl)phenyl)cyclohexanecarboxamide], for which the EC50 was no more than 250 nM.

As to `COc1ncc(-c2cccc(N(C[C@H]3CC[C@H](c4ccc(OC)c(C)c4)CC3)C(=O)C3CCC(F)(F)CC3)c2)s1` [Compound 9.32, 4,4-Difluoro-N-((trans-4-(4-methoxy-3-methylphenyl)cyclohexyl)methyl)-N-(3-(2-methoxythiazol-5-yl)phenyl)cyclohexanecarboxamide], the EC50 is no more than 250 nM. For `COc1ccc([C@H]2CC[C@H](CN(c3cccc(-c4cnc(C5CC5)s4)c3)C(=O)[C@H]3CC[C@H](O)CC3)CC2)cc1C#N` [Compound 7.29, trans-N-((trans-4-(3-Cyano-4-methoxyphenyl)cyclohexyl)methyl)-N-(3-(2-cyclopropylthiazol-5-yl)phenyl)-4-hydroxycyclohexanecarboxamide], the EC50 is no more than 250 nM. Next, `COc1ncc(-c2ccnc(N(C[C@H]3CC[C@H](c4ccc(OC)c(C)c4)CC3)C(=O)[C@H]3CC[C@H](O)CC3)c2)s1` [Compound 6.01, trans-4-Hydroxy-N-((trans-4-(4-methoxy-3-methylphenyl)cyclohexyl)methyl)-N-(4-(2-methoxythiazol-5-yl)pyridin-2-yl)cyclohexanecarboxamide]: no more than 250 nM; `COc1ccc([C@H]2CC[C@H](CN(c3cccc(-c4ncc(C)s4)c3)C(=O)[C@H]3CC[C@H](O)CC3)CC2)cc1C` [Compound 7.03, trans-4-Hydroxy-N-((trans-4-(4-methoxy-3-metthylphenyl)cyclohexyl)methyl)-N-(3-(5-methylthiazol-2-yl)phenyl)cyclohexanecarboxamide]: no less than 1000 nM. Regarding `COc1ccc([C@H]2CC[C@H](CN(c3cccc(-c4cnc(CO)s4)c3)C(=O)[C@H]3CC[C@H](O)CC3)CC2)cc1C` [Compound 7.19, trans-4-Hydroxy-N-(3-(2-(hydroxymethyl)thiazol-5-yl)phenyl)-N-((trans-4-(4-methoxy-3-methylphenyl)cyclohexyl)methyl) cyclohexanecarboxamide], the EC50 was in the range of 250 to 1000 nM. The compound `COc1ccc([C@H]2CC[C@H](CN(c3cccc(NCc4nccs4)c3)C(=O)[C@H]3CC[C@H](O)CC3)CC2)cc1C` [Compound 15, trans-4-Hydroxy-N-((trans-4-(4-methoxy-3-methylphenyl)cyclohexyl)methyl)-N-(3-((thiazol-2-ylmethyl)amino)phenyl)cyclohexanecarboxamide] gave an EC50 of 250 to 1000 nM. The figure for `COc1ccc([C@H]2CC[C@H](CN(c3cccc(C#Cc4cscn4)c3)C(=O)[C@H]3CC[C@H](O)CC3)CC2)cc1C` [Compound 8, trans-4-Hydroxy-N-((trans-4-(4-methoxy-3-methylphenyl)cyclohexyl)methyl)-N-(3-(thiazol-4-ylethynyl)phenyl)cyclohexanecarboxamide] is no more than 250 nM; for `COc1ccc([C@H]2CC[C@H](CN(c3cc(-c4cnc(C5CC5)s4)ccn3)C(=O)[C@H]3CC[C@H](O)CC3)CC2)cc1C` [Compound 6.04, trans-N-(4-(2-cyclopropylthiazol-5-yl)pyridin-2-yl)-4-hydroxy-N-((trans-4-(4-methoxy-3-methylphenyl)cyclohexyl)methyl) cyclohexanecarboxamide] it is no more than 250 nM; for `COc1ccc([C@H]2CC[C@H](CN(c3cccc(-c4nc(C)cs4)c3)C(=O)[C@H]3CC[C@H](O)CC3)CC2)cc1C` [Compound 7.01, trans-4-Hydroxy-N-((trans-4-(4-methoxy-3-methylphenyl)cyclohexyl)methyl)-N-(3-(4-methylthiazol-2-yl)phenyl)cyclohexanecarboxamide] it is no less than 1000 nM.

In turn, `O=C([C@H]1CC[C@H](O)CC1)N(C[C@H]1CC[C@H](c2ccc3c(c2)OCO3)CC1)c1cccc(-c2cnc(C3CC3)s2)c1` [Compound 9.25, trans-N-((trans-4-(Benzo[d][1,3]dioxol-5-yl)cyclohexyl)methyl)-N-(3-(2-cyclopropylthiazol-5-yl)phenyl)-4-hydroxycyclohexanecarboxamide] showed an EC50 of no more than 250 nM. Next, `Cn1ncc2cc([C@H]3CC[C@H](CN(c4cccc(-c5cnc(C6CC6)s5)c4)C(=O)[C@H]4CC[C@H](O)CC4)CC3)ccc21` [Compound 9.16, trans-N-(3-(2-Cyclopropylthiaol-5-yl)phenyl)-4-hydroxy-N-((trans-4-(1-methyl-1H-indazol-5-yl)cyclohexyl)methyl)cyclohexanecarboxamide]: no more than 250 nM; `COc1ncc(-c2cccc(N(C[C@H]3CC[C@H](c4ccc(N(C)C)nc4)CC3)C(=O)[C@H]3CC[C@H](O)CC3)c2)s1` [Compound 9.08, trans-N-((trans-4-(6-(Dimethylamino)pyridin-3-yl)cyclohexyl)mtehyl)-4-hydroxy-N-(3-(2-methoxythiazol-5-yl)phenyl)cyclohexanecarboxamide]: no more than 250 nM. `CCn1cc([C@H]2CC[C@H](CN(c3cccc(-c4cnc(C5CC5)s4)c3)C(=O)[C@H]3CC[C@H](O)CC3)CC2)cn1` [Compound 9.18, trans-N-(3-(2-Cyclopropylthiazol-5-yl)phenyl)-N-((trans-4-(1-ethyl-1H-pyrazol-4-yl)cyclohexyl)methyl)-4-hydroxycyclohexanecarboxamide] displayed an EC50 of no more than 250 nM.

Turning to `COc1ncc(-c2cccc(N(C[C@H]3CC[C@H](c4cnc(OC)c(Cl)c4)CC3)C(=O)[C@H]3CC[C@H](O)CC3)c2)s1` [Compound 9.04, trans-N-((trans-4-(5-Chloro-6-methoxypyridin-3-yl)cyclohexyl)methyl)-4-hydroxy-N-(3-(2-methoxythiazol-5-yl)phenyl)cyclohexanecarboxamide], the EC50 was no more than 250 nM. `COc1ccc([C@H]2CC[C@H](CN(c3cccc(-c4cnc(C(C)C)s4)c3)C(=O)[C@H]3CC[C@H](O)CC3)CC2)nc1C` [Compound 9.27, trans-4-Hydroxy-N-(3-(2-isopropylthiazol-5-yl)phenyl)-N-((trans-4-(5-methoxy-6-methylpyridin-2-yl)cyclohexyl)methyl)cyclohexanecarboxamide] had an EC50 of no more than 250 nM. Next, `COc1ccc([C@H]2CC[C@H](CN(c3cccc(-c4cnc(C(F)F)s4)c3)C(=O)[C@H]3CC[C@H](O)CC3)CC2)cc1C` [Compound 7.22, trans-N-(3-(2-(Difluoromethyl)thiazol-5-yl)phenyl)-4-hydroxy-N-((trans-4-(4-methoxy-3-methylphenyl)cyclohexyl)methyl) cyclohexanecarboxamide]: no more than 250 nM; `COc1ccc([C@H]2CC[C@H](CN(c3cccc(-c4cnc(CCO)s4)c3)C(=O)[C@H]3CC[C@H](O)CC3)CC2)cc1C` [Compound 7.20, trans-4-Hydroxy-N-(3-(2-(2-hydroxyethyl)thiazol-5-yl)phenyl)-N-((trans-4-(4-methoxy-3-methylphenyl)cyclohexyl)methyl) cyclohexanecarboxamide]: 250 to 1000 nM.
